# PMC7497679, “Structure-based design, synthesis, and evaluation of the biological activity of novel phosphoroorganic small molecule IAP antagonists” (Investigational New Drugs, 2020)
# Where two headings read alike, the source gives them in different places.
# How the values were obtained:
# [1] = target: T1, XIAP BIR3 domain (Homo sapiens, UniProt P98170); assay: Fluorescence polarization inhibition (competition) assay; assay type: binding; conditions: for inhibition at 50 µM: 0.5 h, antagonist 50 µM, inhibition of protein-probe interaction; for Ki / EC50: XIAP BIR3 50 nM, fluorescent probe 4 2 nM
# T1 construct: fluorescent probe 4 and the XIAP BIR3 domain (Sino Biological, Beijing, China) were used for all measurements; purchased Sino Biological, Beijing, China
# Summary of the method: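 BIR3 protein (50 nM) preincubated 15 min at r.t. with compound (50 μM to 0.0537 nM), then fluorescent probe 4 (2 nM) added and polarization read 30 min later (ex 484, em 528 nm). Phosphate buffer pH 7.5 with γ-globulin, NaN3, 1.4% DMSO; duplicates. EC50 from variable-slope fit, converted to Ki.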
# [2] = test system: A549; assay: Antiproliferative activity, SRB method; assay type: cell-based, human; conditions: Homo sapiens, A549, 10 µM, 72 h, read-out: mean proliferation inhibition at highest concentration used, A549
# Source text: (§1) MDA-MB-231 (human breast cancer), MCF10A (human, nontumorigenic mammary gland epithelial cells), A549 (human nonsmall-cell lung cancer), UMUC-3 (human bladder cancer) and LoVo (human colon cancer) cell lines were obtained from the American Type Culture Collection (ATCC; Rockville, Maryland, USA). The MCF-7 cell line (human breast cancer) was obtained from the European Collection of Cell Cultures (ECACC; Salisbury, UK). All cell lines were maintained at the Hirszfeld Institute of Immunology and Experimental Therapy (HIIET), Wrocław, Poland. MDA-MB-231 cells were cultured in RPMI1640 medium (Thermo Fisher Scientific, Warszawa, Poland) supplemented with 2 mM L-glutamine, 1 mM sodium pyruvate, and 10% fetal bovine serum (all from Sigma-Aldrich, Poznań, Poland). The MCF10A cell line was cultured in Ham’s F12 medium with glutamine (Corning) supplemented with 5% (v/v) fetal bovine serum (FBS), 5% (v/v) horse serum, 10 µg/mL insulin, 0.05 µg/mL cholera toxin, 0.5 µg/mL hydrocortisone, and 20 ng/mL hEGF (all from Sigma-Aldrich). A549 and LoVo cells were cultured in a 1:1 (v/v) mixture of RPMI1640 and Opti-MEM (both from HIIET) supplemented with 5% (v/v) FBS and 2 mM L-glutamine. The UMUC-3 cell line was cultured in high glucose DMEM (Thermo Fisher Scientific) supplemented with 10% FBS and 2 mM Lglutamine. The MCF-7 line was cultured in Eagle’s minimal essential medium (EMEM; Thermo Fisher Scientific) supplemented with 10% (v/v) FBS, 2 mM L-glutamine, 1% (v/v) nonessential amino acids, and 8 µg/mL insulin (all from Sigma-Aldrich). All culture media contained 100 µg/mL streptomycin (Sigma-Aldrich) and 100 U/mL penicillin (Polfa Tarchomin SA, Warszawa, Poland). The cells were grown at 37 °C in a humid atmosphere saturated with 5% CO2.
# (§2) Antiproliferative activity was assessed in six cell lines utilizing the sulforhodamine B (SRB) method. Briefly, cells were seeded in 96-well plates (Sarstedt, Warszawa, Poland) at a density of 5 × 10^3 cells/well, and after overnight incubation, the cells were exposed to compounds at various concentrations. After 72 h, the plates were fixed with 50% (v/v) TCA (all from Sigma-Aldrich), washed with tap water, and the precipitated proteins were labeled with 0.1% (w/v) SRB solution in 1% (v/v) AcOH. Next, the plates were washed with 1% (v/v) AcOH, and the remaining SRB dye was solubilized with 10 mM unbuffered TRIS solution. The absorbance was measured using a Biotek Hybrid H4 reader (BioTek Instruments, VT, USA) at 540 nm. Crude results were analyzed using a previously described method, and the results are expressed as the IC50 (compound concentration that reduced cell growth by 50%) compared to the vehicletreated control (0.1% (v/v) DMSO). The samples were analyzed in triplicate, and each experiment was repeated at least three times.
# [3] = test system: LoVo; assay: Antiproliferative activity, SRB method; assay type: cell-based, human; conditions: Homo sapiens, LoVo, 10 µM, 72 h, read-out: mean proliferation inhibition at highest concentration used, LoVo
# Source text: as §1, §2
# [4] = test system: MCF-10A; assay: Antiproliferative activity, SRB method; assay type: cell-based, human; conditions: Homo sapiens, MCF-10A, 10 µM, 72 h, read-out: mean proliferation inhibition at highest concentration used, MCF-10A
# Source text: as §1, §2
# [5] = test system: MCF-7; assay: Antiproliferative activity, SRB method; assay type: cell-based, human; conditions: Homo sapiens, MCF7, 10 µM, 72 h, read-out: mean proliferation inhibition at highest concentration used, MCF-7
# Source text: as §1, §2
# [6] = test system: MDA-MB-231; assay: Antiproliferative activity, SRB method; assay type: cell-based, human; conditions: Homo sapiens, MDA-MB-231, 72 h, read-out: IC50 ± SD (n = 3) MDA-MB-231
# Source text: as §1, §2
# [7] = test system: UMUC-3; assay: Antiproliferative activity, SRB method; assay type: cell-based, human; conditions: Homo sapiens, UMUC3, 10 µM, 72 h, read-out: mean proliferation inhibition at highest concentration used, UMUC-3
# Source text: as §1, §2
# T1 sequence (P98170 252-356 limits assumed): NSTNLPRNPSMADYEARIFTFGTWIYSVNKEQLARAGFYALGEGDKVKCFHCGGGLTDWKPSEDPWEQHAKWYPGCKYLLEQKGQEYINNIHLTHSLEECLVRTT
SMILES,inhibition at 50 µM [1] [%],Ki [1] [nM],EC50 ([1]; read-out: EC50) [nM],EC50 ([1]; read-out: log EC50 (converted)) [nM],inhibition at 10 µM [2] [%],inhibition at 10 µM [3] [%],inhibition at 10 µM [4] [%],inhibition at 10 µM [5] [%],IC50 [6] [nM],inhibition at 10 µM [7] [%]
"CN[C@@H](C)C(=O)N[C@H](C(=O)N1CCC[C@H]1C(=O)NC(Cc1ccccc1)P(=O)(Oc1ccccc1)Oc1ccccc1)C(C)C (stereo partly drawn) [Compound 41, diphenyl (1-((S)-1-((S)-3-methyl-2-((S)-2-(methylamino)propanamido)butanoyl)pyrrolidine-2-carboxamido)-2-phenylethyl)phosphonate]",100,50,130,131,10,11,2,20,2580 ± 320,5
"CN[C@@H](C)C(=O)N[C@H](C(=O)N1CCC[C@H]1C(=O)NC(Cc1ccccc1)P(=O)(Oc1ccccc1)Oc1ccccc1)C1CCCCC1 (stereo partly drawn) [Compound 42, diphenyl (1-((S)-1-((S)-2-cyclohexyl-2-((S)-2-(methylamino)propanamido)acetyl)pyrrolidine-2-carboxamido)-2-phenylethyl)phosphonate]",100,350,740,738,23,12,2,16,2460 ± 380,6
